Laboratory results reported in PubChem BioAssay (NCI).
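Each compound was tested at five concentrations against cells in 96-well plates for 48 hours. GI50: concentration for 50% inhibition of growth. TGI is the concentration that stops growth completely.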

How the values were obtained:
Experiment in all cases: NCI tumour cell line growth inhibition, 48 h
MDA-MB-435 = tested on: MDA-MB-435
SNB-19 CNS = tested on: SNB-19 CNS
PC-3 prostate = tested on: PC-3 prostate
SR leukemia = tested on: SR leukemia
HL-60(TB) leukemia = tested on: HL-60(TB) leukemia
SK-MEL-2 melanoma = tested on: SK-MEL-2 melanoma
RPMI-8226 leukemia = tested on: RPMI-8226 leukemia
UO-31 renal = tested on: UO-31 renal
M14 melanoma = tested on: M14 melanoma
HCT-116 colon = tested on: HCT-116 colon

Compound	TGI (MDA-MB-435)	TGI (SNB-19 CNS)	TGI (PC-3 prostate)	TGI (SR leukemia)	TGI (HL-60(TB) leukemia)	TGI (SK-MEL-2 melanoma)	TGI (RPMI-8226 leukemia)	TGI (UO-31 renal)	TGI (M14 melanoma)	TGI (HCT-116 colon)	GI50 (MDA-MB-435)	GI50 (SNB-19 CNS)	GI50 (PC-3 prostate)	GI50 (SR leukemia)	GI50 (HL-60(TB) leukemia)	GI50 (SK-MEL-2 melanoma)	GI50 (RPMI-8226 leukemia)	GI50 (UO-31 renal)	GI50 (M14 melanoma)	GI50 (HCT-116 colon)
O=C1OC(c2ccc(O)c(-c3ccccc3)c2)(c2ccc(O)c(-c3ccccc3)c2)c2c(Cl)c(Cl)c(Cl)c(Cl)c21	> 100 µM	> 100 µM	> 100 µM	> 100 µM	12.3 µM	> 100 µM	> 100 µM	> 100 µM	> 100 µM	> 100 µM	–	–	–	–	–	–	–	–	–	–
CN1CCN(c2ccc3nc(-c4cc(C(C)(C)C)c(O)c(C(C)(C)C)c4)[nH]c3c2)CC1	3.16 µM	12.4 µM	4.17 µM	8.58 µM	4.52 µM	5.49 µM	4.85 µM	3.08 µM	3.37 µM	4.06 µM	1.73 µM	3.29 µM	1.92 µM	2.45 µM	2.22 µM	2.38 µM	2.08 µM	1.7 µM	1.68 µM	1.85 µM
C#C[C@]1(O)CC[C@H]2[C@@H]3CC=C4c5sc(N=C(N)N)nc5CC[C@]4(C)[C@H]3CC[C@@]21C	2.01 µM	2.41 µM	1.8 µM	1.98 µM	1.92 µM	2.36 µM	0.864 µM	0.931 µM	1.56 µM	2.29 µM	0.7 µM	1.11 µM	0.475 µM	0.348 µM	0.425 µM	0.787 µM	0.153 µM	0.307 µM	0.497 µM	0.989 µM
CS(=O)(=O)CCNCc1ccc(-c2ccc3ncnc(Nc4ccc(OCc5cccc(C(F)(F)F)c5)cc4)c3c2)o1	10.7 µM	> 25 µM	19.9 µM	16.7 µM	10.9 µM	9.96 µM	16.5 µM	10.2 µM	13.9 µM	10 µM	4.71 µM	11.3 µM	5.63 µM	4.49 µM	4.96 µM	5.46 µM	5.7 µM	4.34 µM	6.11 µM	5.07 µM
CCCCCCCCCCCCCCCc1cc(O)ccc1N	> 100 µM	> 100 µM	10.6 µM	23.4 µM	0.532 µM	> 100 µM	18.8 µM	9.36 µM	> 100 µM	> 100 µM	> 100 µM	> 100 µM	0.463 µM	2.18 µM	0.142 µM	> 100 µM	0.18 µM	0.685 µM	> 100 µM	> 100 µM
Cn1c(COC(=O)N2CCCCC2)nc2c(N3CCOCC3)nc(-c3ccccc3)nc21	1.86 µM	2.86 µM	2.15 µM	2.34 µM	2.44 µM	3.25 µM	0.814 µM	1.45 µM	1.89 µM	0.471 µM	0.58 µM	1.51 µM	0.666 µM	0.287 µM	0.592 µM	1.64 µM	0.257 µM	0.26 µM	0.509 µM	0.173 µM
O=C(Nc1cc(C(F)(F)F)ccc1F)Nc1n[nH]c2ccccc12	> 100 µM	> 100 µM	> 100 µM	> 100 µM	> 100 µM	> 100 µM	> 100 µM	> 100 µM	> 100 µM	> 100 µM	> 100 µM	> 100 µM	> 100 µM	55.4 µM	> 100 µM	> 100 µM	> 100 µM	> 100 µM	> 100 µM	> 100 µM
COc1cc(CSc2nc3ccc(C)cc3c(=O)n2Cc2ccccc2)cc(OC)c1OC	2.62 µM	> 100 µM	> 100 µM	11.1 µM	> 100 µM	43.1 µM	> 100 µM	> 100 µM	> 100 µM	48.9 µM	0.337 µM	5.93 µM	2.66 µM	0.372 µM	3.3 µM	4.05 µM	2.96 µM	3.05 µM	3.08 µM	2.08 µM
CC(ONC(=O)c1cc(C(F)(F)F)cc(C(F)(F)F)c1)C(=O)Nc1ccc(Cl)cc1 (stereo not given)	29.7 µM	> 100 µM	18.4 µM	1.16 µM	28.3 µM	15.2 µM	6.98 µM	21.5 µM	25.3 µM	16.4 µM	4.39 µM	5.64 µM	3.63 µM	–	3.86 µM	3.65 µM	2.27 µM	4.85 µM	7.46 µM	4.97 µM
O=C(O)C1C2CC3C(OC(=O)C31)C2Br (stereo not given)	> 100 µM	> 100 µM	> 100 µM	26.2 µM	> 23.4 µM	> 100 µM	> 100 µM	> 100 µM	> 100 µM	> 100 µM	–	–	–	–	–	–	–	–	–	–
O=C(COc1cccc(/C=C2\COc3ccccc3C2=O)c1)Nc1nccs1	7.53 µM	22.1 µM	3.46 µM	2.76 µM	3.44 µM	5.05 µM	3.69 µM	2.91 µM	3.71 µM	3.15 µM	2.51 µM	9.93 µM	1.37 µM	1.03 µM	1.59 µM	1.88 µM	1.29 µM	1.52 µM	1.85 µM	1.76 µM
CCC(Sc1nnc2c3ccccc3n(CC)c2n1)C(=O)Nc1ccccc1OC (stereo not given)	> 100 µM	> 100 µM	> 100 µM	> 100 µM	6.91 µM	> 100 µM	> 72.8 µM	6.65 µM	> 100 µM	> 100 µM	> 100 µM	> 100 µM	59.3 µM	> 100 µM	3.02 µM	> 100 µM	4.35 µM	2.12 µM	> 100 µM	48.5 µM
O=Cc1ccc(-c2ccc(-c3ccc(C=O)s3)o2)s1	> 100 µM	> 100 µM	> 100 µM	> 100 µM	> 100 µM	> 100 µM	> 100 µM	> 100 µM	> 100 µM	> 100 µM	–	–	–	–	–	–	–	–	–	–
O=C1C=C(Nc2ccccc2C(=O)CC(=O)C(=O)Nc2cccc(C(F)(F)F)c2)c2ccccc2C1=O	20.9 µM	> 100 µM	> 100 µM	> 94.7 µM	24.2 µM	44.5 µM	> 100 µM	> 80.1 µM	31.7 µM	74.3 µM	–	–	–	–	–	–	–	–	–	–
COc1cc(OC)c2c(=O)c(O)c(-c3ccc(OC)c(OC)c3)oc2c1	> 31.6 µM	> 100 µM	> 100 µM	19.2 µM	44.3 µM	–	> 31.6 µM	> 100 µM	> 31.6 µM	> 100 µM	–	–	–	–	–	–	–	–	–	–
COc1ccc(C(O)CNC(=O)c2ccccc2)cc1 (stereo not given)	> 100 µM	> 100 µM	> 100 µM	> 100 µM	> 100 µM	> 100 µM	> 100 µM	–	> 100 µM	> 100 µM	–	–	–	–	–	–	–	–	–	–
[Cu+2].[O-]c1ccc2ccccc2c1N=Nc1ccccc1.[O-]c1ccc2ccccc2c1N=Nc1ccccc1	> 100 µM	> 100 µM	> 100 µM	> 100 µM	> 100 µM	> 100 µM	> 100 µM	> 100 µM	> 100 µM	> 100 µM	–	–	–	–	–	–	–	–	–	–
COc1ccc2c(c1)c(C1(c3cn(C)c4ccc(OC)cc34)C(=O)Nc3ccc(F)cc31)cn2C	> 100 µM	> 100 µM	> 100 µM	82 µM	–	9.64 µM	> 100 µM	> 100 µM	68.8 µM	15.3 µM	3.77 µM	12.2 µM	3.88 µM	5.59 µM	–	3.62 µM	6.77 µM	2.27 µM	4.19 µM	3.84 µM
COc1ccc(O)c(C(=O)c2ccc(C(=O)O[C@@H]3CCCNC[C@H]3NC(=O)c3ccncc3)cc2)c1F	> 25 µM	> 25 µM	> 25 µM	> 5.21 µM	2.34 µM	16.6 µM	> 25 µM	> 14 µM	> 25 µM	> 25 µM	1.9 µM	1.9 µM	3.74 µM	0.146 µM	0.753 µM	0.89 µM	1.25 µM	0.375 µM	1.2 µM	1.04 µM
CCOC(=O)CC1(O)C=CC(=O)C=C1	4.89 µg/mL	5.05 µg/mL	0.921 µg/mL	1.18 µg/mL	24.3 µg/mL	4.66 µg/mL	28.4 µg/mL	4.44 µg/mL	4.35 µg/mL	5.44 µg/mL	2.35 µg/mL	1.53 µg/mL	0.348 µg/mL	0.348 µg/mL	1 µg/mL	2.33 µg/mL	1.24 µg/mL	2.41 µg/mL	1.67 µg/mL	2.47 µg/mL
CO[C@@H]1[C@@H](OC2OC(C)C(OC3CC(C)(O)C(OC(=O)CC(C)C)C(C)O3)C(N(C)C)C2O)[C@@H](CC=O)C[C@@H](C)C(=O)/C=C/C2O[C@H]2C[C@@H](C)OC(=O)C[C@H]1OC(C)=O (stereo not given in full)	45.2 µM	60.1 µM	38.4 µM	42.4 µM	25 µM	43.7 µM	47.4 µM	73.6 µM	30 µM	30.8 µM	–	–	–	–	–	–	–	–	–	–
ClCCN(CCCl)c1ccc(-n2cnc3c(Cl)ncnc32)cc1	4.12 µM	17.4 µM	18.2 µM	6.55 µM	6.58 µM	27.6 µM	59.1 µM	3.34 µM	3.88 µM	3.33 µM	2.04 µM	5.4 µM	4.38 µM	2.06 µM	2.5 µM	14 µM	9.69 µM	1.7 µM	1.96 µM	1.82 µM
C(=C1c2ccccc2-c2ccccc21)c1ccccn1	3.69 µM	> 100 µM	> 100 µM	38.3 µM	38.5 µM	43 µM	> 100 µM	38.6 µM	18.2 µM	24.6 µM	1.72 µM	14 µM	22.7 µM	3.76 µM	4.52 µM	12.7 µM	16.2 µM	8.64 µM	4.06 µM	5.07 µM
CCC[C@H](N[C@@H]1CCc2cc(F)cc(F)c2C1)C(=O)Nc1cn(C(C)(C)CNCC(C)(C)C)cn1	53.2 µM	> 94.6 µM	79.2 µM	> 79 µM	43.4 µM	35.4 µM	34.8 µM	22.1 µM	26.9 µM	20.2 µM	17 µM	26.6 µM	7.63 µM	14.2 µM	16.3 µM	16.1 µM	5.98 µM	6.33 µM	10.5 µM	5.31 µM
COc1cccc(/C=N\Nc2ccc([N+](=O)[O-])cn2)c1O	> 100 µM	27.8 µM	> 100 µM	> 100 µM	17.7 µM	54.4 µM	27.8 µM	7.24 µM	25.9 µM	15.2 µM	5.23 µM	3.13 µM	14 µM	3.03 µM	3.13 µM	9.69 µM	3.21 µM	1.74 µM	3.34 µM	3.04 µM
Nc1cc(-c2ccccc2)ccc1O	> 100 µM	> 100 µM	> 100 µM	> 100 µM	> 100 µM	> 100 µM	–	> 100 µM	> 100 µM	> 100 µM	> 100 µM	> 100 µM	21.6 µM	33.9 µM	45.4 µM	> 100 µM	–	34 µM	> 100 µM	54.6 µM
O=C1/C(=C/c2ccccc2Cl)N=C(c2ccccc2)N1Cc1ccco1	49.9 µM	> 100 µM	> 100 µM	> 100 µM	–	55.1 µM	> 100 µM	> 100 µM	38.2 µM	> 100 µM	20.1 µM	> 100 µM	39 µM	26.2 µM	–	28.1 µM	25.4 µM	55.4 µM	18.6 µM	18.5 µM
CCCCCCCCCCCCCCCC(=O)OCC(O)C1OC(=O)C(O)=C1O (stereo not given)	42.4 µM	91.4 µM	> 100 µM	> 100 µM	65.9 µM	> 100 µM	–	59.9 µM	36.2 µM	36.7 µM	–	–	–	–	–	–	–	–	–	–
